What was measured:
Assay type in all cases: functional, cell-based
SK-MES-1 = assay: cells; settings: Homo sapiens;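 further: growth inhibition of human SK-MES-1 cells, read out with a cell viability assay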
Description: SANGER: Inhibition of human SK-MES-1 cell growth in a cell viability assay.

NCI-H524 = assay: cells; settings: Homo sapiens;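 further: growth inhibition of human NCI-H524 cells, read out through a cell viability assay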
Description: SANGER: Inhibition of human NCI-H524 cell growth in a cell viability assay.

NB12 = assay: cells; settings: Homo sapiens;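 further: growth inhibition of human NB12 cells, read out by a cell viability assay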
Description: SANGER: Inhibition of human NB12 cell growth in a cell viability assay.

MKN-7 = assay: cells; settings: Homo sapiens;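 further: growth inhibition of MKN-7 cells, read out with a cell viability assay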
Description: SANGER: Inhibition of human MKN7 cell growth in a cell viability assay.

EVSA-T = assay: cells; settings: Homo sapiens;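 further: growth inhibition of EVSA-T cells, read out with a cell viability assay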
Description: SANGER: Inhibition of human EVSA-T cell growth in a cell viability assay.

SIG-M5 = assay: cells; settings: Homo sapiens;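 further: cell viability assay read-out, measuring how strongly growth of cultured human SIG-M5 cells is inhibited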
Description: SANGER: Inhibition of human SIG-M5 cell growth in a cell viability assay.

NCI-N87 = assay: cells; settings: Homo sapiens;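 further: growth inhibition of human NCI-N87 cells, read out with a cell viability assay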
Description: SANGER: Inhibition of human NCI-N87 cell growth in a cell viability assay.

HT-1376 = assay: cells; settings: Homo sapiens
Description: SANGER: Inhibition of human HT-1376 cell growth in a cell viability assay.

PANC-08-13 = assay: cells; settings: Homo sapiens
Description: SANGER: Inhibition of human PANC-08-13 cell growth in a cell viability assay.

SIMA = assay: cells; settings: Homo sapiens;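 further: growth inhibition of SIMA cells, measured with a cell viability readout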
Description: SANGER: Inhibition of human SIMA cell growth in a cell viability assay.

Ca-Ski = assay: cells; settings: Homo sapiens;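 further: cell viability assay measuring inhibition of Ca-Ski cell growth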
Description: SANGER: Inhibition of human Ca-Ski cell growth in a cell viability assay.

PF-382 = assay: cells; settings: Homo sapiens
Description: SANGER: Inhibition of human PF-382 cell growth in a cell viability assay.

ECC4 = assay: cells; settings: Homo sapiens;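 further: growth inhibition of ECC4 cells, read out with a cell viability assay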
Description: SANGER: Inhibition of human ECC4 cell growth in a cell viability assay.

T98G = assay: cells; settings: Homo sapiens;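 further: growth inhibition of T98G cells, read out by a cell viability assay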
Description: SANGER: Inhibition of human T98G cell growth in a cell viability assay.

RVH-421 = assay: cells; settings: Homo sapiens
Description: SANGER: Inhibition of human RVH-421 cell growth in a cell viability assay.

NCI-H345 = assay: cells; settings: Homo sapiens;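 further: growth inhibition of NCI-H345 cells measured with a cell viability assay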
Description: SANGER: Inhibition of human NCI-H345 cell growth in a cell viability assay.

MDA-MB-231 = assay: cells; settings: Homo sapiens
Description: SANGER: Inhibition of human MDA-MB-231 cell growth in a cell viability assay.

ME-180 = assay: cells; settings: Homo sapiens;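 further: cell viability assay measuring growth inhibition of ME-180 cells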
Description: SANGER: Inhibition of human ME-180 cell growth in a cell viability assay.

YKG-1 = assay: cells; settings: Homo sapiens;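 further: cell growth inhibition, read out with a viability assay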
Description: SANGER: Inhibition of human YKG-1 cell growth in a cell viability assay.

SW1710 = assay: cells; settings: Homo sapiens;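 further: growth inhibition of SW1710 cells, determined with a cell viability assay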
Description: SANGER: Inhibition of human SW1710 cell growth in a cell viability assay.

NCI-H28 = assay: cells; settings: Homo sapiens;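 further: growth inhibition of human NCI-H28 cells, read out as cell viability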
Description: SANGER: Inhibition of human NCI-H28 cell growth in a cell viability assay.

NCI-H661 = assay: cells; settings: Homo sapiens;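 further: cell viability assay read-out, IC50 being the concentration that inhibits growth of the cells by half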
Description: SANGER: Inhibition of human NCI-H661 cell growth in a cell viability assay.

RD = assay: cells; settings: Homo sapiens
Description: SANGER: Inhibition of human RD cell growth in a cell viability assay.

C-33-A = assay: cells; settings: Homo sapiens;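 further: cell viability assay measuring growth inhibition of C-33-A cells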
Description: SANGER: Inhibition of human C-33-A cell growth in a cell viability assay.

CP50-MEL-B = assay: cells; settings: Homo sapiens;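 further: growth inhibition of the human cell line, measured with a cell viability read-out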
Description: SANGER: Inhibition of human CP50-MEL-B cell growth in a cell viability assay.

23132-87 = assay: cells; settings: Homo sapiens
Description: SANGER: Inhibition of human 23132-87 cell growth in a cell viability assay.

PA-1 = assay: cells; settings: Homo sapiens;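 further: IC50 for suppression of PA-1 cell proliferation, determined with a cell viability read-out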
Description: SANGER: Inhibition of human PA-1 cell growth in a cell viability assay.

UMC-11 = assay: cells; settings: Homo sapiens;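 further: growth inhibition of UMC-11 cells, read out with a cell viability assay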
Description: SANGER: Inhibition of human UMC-11 cell growth in a cell viability assay.

OE19 = assay: cells; settings: Homo sapiens;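 further: growth inhibition of OE19 cells, measured through a cell viability read-out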
Description: SANGER: Inhibition of human OE19 cell growth in a cell viability assay.

M14 = assay: cells; settings: Homo sapiens;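 further: growth inhibition of M14 cells, read out with a cell viability assay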
Description: SANGER: Inhibition of human M14 cell growth in a cell viability assay.

SK-MEL-30 = assay: cells; settings: Homo sapiens;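 further: growth inhibition of SK-MEL-30 cells, determined with a cell viability assay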
Description: SANGER: Inhibition of human SK-MEL-30 cell growth in a cell viability assay.

SW1990 = assay: cells; settings: Homo sapiens
Description: SANGER: Inhibition of human SW1990 cell growth in a cell viability assay.

NY = assay: cells; settings: Homo sapiens
Description: SANGER: Inhibition of human NY cell growth in a cell viability assay.

BOKU = assay: cells; settings: Homo sapiens;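 further: growth inhibition of the human BOKU cell line, read out by a cell viability assay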
Description: SANGER: Inhibition of human BOKU cell growth in a cell viability assay.

IM-9 = assay: SANGER: Inhibition of human IM-9 cell growth in a cell viability assay.
M059J = assay: cells; settings: Homo sapiens;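 further: growth inhibition of M059J cells, read out with a cell viability assay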
Description: SANGER: Inhibition of human M059J cell growth in a cell viability assay.

UO-31 = assay: cells; settings: Homo sapiens
Description: SANGER: Inhibition of human U031 cell growth in a cell viability assay.

NCI-H2342 = assay: cells; settings: Homo sapiens;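 further: growth inhibition of the cancer cell line, determined with a cell viability assay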
Description: SANGER: Inhibition of human NCI-H2342 cell growth in a cell viability assay.

TE-441-T = assay: cells; settings: Homo sapiens
Description: SANGER: Inhibition of human TE-441-T cell growth in a cell viability assay.

NCI-H2405 = assay: cells; settings: Homo sapiens;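 further: growth inhibition of the human cell line, read out with a cell viability assay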
Description: SANGER: Inhibition of human NCI-H2405 cell growth in a cell viability assay.

NCI-H2171 = assay: cells; settings: Homo sapiens;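 further: growth inhibition of human NCI-H2171 cells, read out by a cell viability assay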
Description: SANGER: Inhibition of human NCI-H2171 cell growth in a cell viability assay.

HCC 2998 = assay: cells; settings: Homo sapiens;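 further: growth inhibition of human HCC2998 cells, measured with a cell viability read-out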
Description: SANGER: Inhibition of human HCC2998 cell growth in a cell viability assay.

NCI-H1573 = assay: cells; settings: Homo sapiens;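 further: growth inhibition of NCI-H1573 cells, read out with a cell viability assay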
Description: SANGER: Inhibition of human NCI-H1573 cell growth in a cell viability assay.

BL-70 = assay: SANGER: Inhibition of human BL-70 cell growth in a cell viability assay.
LC-1F = assay: cells; settings: Homo sapiens;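 further: growth inhibition of human LC-1F cells, read out with a cell viability assay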
Description: SANGER: Inhibition of human LC-1F cell growth in a cell viability assay.

CAL-72 = assay: cells; settings: Homo sapiens;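 further: cell viability assay measuring inhibition of proliferation in the CAL-72 cell line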
Description: SANGER: Inhibition of human CAL-72 cell growth in a cell viability assay.

WM-115 = assay: cells; settings: Homo sapiens
Description: SANGER: Inhibition of human WM-115 cell growth in a cell viability assay.

DU-145 = assay: cells; settings: Homo sapiens
Description: SANGER: Inhibition of human DU-145 cell growth in a cell viability assay.

CHL-1 = assay: cells; settings: Homo sapiens;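 further: cell growth inhibition, read out with a cell viability assay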
Description: SANGER: Inhibition of human CHL-1 cell growth in a cell viability assay.

THP-1 = assay: cells; settings: Homo sapiens;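 further: growth inhibition of THP-1 cells, read out via a cell viability assay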
Description: SANGER: Inhibition of human THP-1 cell growth in a cell viability assay.

VMRC-RCZ = assay: cells; settings: Homo sapiens
Description: SANGER: Inhibition of human VMRC-RCZ cell growth in a cell viability assay.

EB-3 = assay: cells; settings: Homo sapiens;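 further: human EB-3 cells, growth inhibition read out via a cell viability assay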
Description: SANGER: Inhibition of human EB-3 cell growth in a cell viability assay.

HCC70 = assay: cells; settings: Homo sapiens;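 further: cell viability assay measuring how strongly the compound suppresses proliferation of HCC70 cells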
Description: SANGER: Inhibition of human HCC70 cell growth in a cell viability assay.

NCI-H1623 = assay: cells; settings: Homo sapiens;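 further: cell viability assay used as the read-out for growth inhibition of NCI-H1623 cells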
Description: SANGER: Inhibition of human NCI-H1623 cell growth in a cell viability assay.

LC4-1 = assay: cells; settings: Homo sapiens;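 further: growth inhibition of LC4-1 cells, read out with a cell viability assay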
Description: SANGER: Inhibition of human LC4-1 cell growth in a cell viability assay.

CaR-1 = assay: cells; settings: Homo sapiens;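 further: growth inhibition of human CaR-1 cancer cells, read out with a cell viability assay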
Description: SANGER: Inhibition of human CaR-1 cell growth in a cell viability assay.

HSC-3 = assay: cells; settings: Homo sapiens
Description: SANGER: Inhibition of human HSC-3 cell growth in a cell viability assay.

RPMI-2650 = assay: cells; settings: Homo sapiens
Description: SANGER: Inhibition of human RPMI-2650 cell growth in a cell viability assay.

CWR22R = assay: cells; settings: Homo sapiens, 22Rv1;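 further: growth inhibition of 22Rv1 cells, read out with a cell viability assay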
Description: SANGER: Inhibition of human 22RV1 cell growth in a cell viability assay.

NCI-H2009 = assay: cells; settings: Homo sapiens;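 further: cell viability assay measuring inhibition of NCI-H2009 cell growth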
Description: SANGER: Inhibition of human NCI-H2009 cell growth in a cell viability assay.

BC-3 = assay: cells; settings: Homo sapiens;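 further: cell viability assay measuring growth inhibition of human BC-3 cells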
Description: SANGER: Inhibition of human BC-3 cell growth in a cell viability assay.

NCI-H1993 = assay: cells; settings: Homo sapiens;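 further: growth inhibition of the cancer cell line, assessed with a cell viability assay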
Description: SANGER: Inhibition of human NCI-H1993 cell growth in a cell viability assay.

HOP-92 = assay: cells; settings: Homo sapiens;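 further: cell viability readout, with IC50 reflecting inhibition of HOP-92 cell growth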
Description: SANGER: Inhibition of human HOP-92 cell growth in a cell viability assay.

DoTc2-4510 = assay: cells; settings: Homo sapiens
HT55 = assay: cells; settings: Homo sapiens;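 further: cell viability readout measuring growth inhibition of human HT55 cells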
Description: SANGER: Inhibition of human HT55 cell growth in a cell viability assay.

Compound `CO[C@@]12[C@H](COC(N)=O)C3=C(C(=O)C(C)=C(N)C3=O)N1C[C@@H]1N[C@@H]12` [MITOMYCIN] has an IC50 (SK-MES-1) of 0.0511 µM, an IC50 (NCI-H524) of 2.7 µM and an IC50 (NB12) of 1.2 µM. The IC50 (MKN-7) was over 16 µM, the IC50 (EVSA-T) was 1.57 µM and the IC50 (SIG-M5) was under 0.0625 µM. It also gave an IC50 (NCI-N87) of 0.438 µM, an IC50 (HT-1376) of 0.967 µM and an IC50 (PANC-08-13) of 2.4 µM. It also gave an IC50 (SIMA) of 0.241 µM, an IC50 (Ca-Ski) of 0.0538 µM and an IC50 (PF-382) of 0.251 µM. It also gave an IC50 (ECC4) of 5.07 µM, an IC50 (T98G) of 0.524 µM and an IC50 (RVH-421) of 0.629 µM. The IC50 (NCI-H345) was 4.73 µM, the IC50 (MDA-MB-231) was 3.24 µM and the IC50 (ME-180) was 0.0401 µM. It also gave an IC50 (YKG-1) of 0.545 µM, an IC50 (SW1710) of 0.0726 µM and an IC50 (NCI-H28) of 2.44 µM. For the same compound, the IC50 (NCI-H661) was 0.542 µM, the IC50 (RD) was 1.9 µM and the IC50 (C-33-A) was 0.487 µM. The IC50 (CP50-MEL-B) was 0.78 µM, the IC50 (23132-87) was 0.0305 µM and the IC50 (PA-1) was 0.0235 µM. It also gave an IC50 (UMC-11) of 0.567 µM, an IC50 (OE19) of 0.365 µM and an IC50 (M14) of 1.34 µM. For the same compound, the IC50 (SK-MEL-30) was 0.474 µM, the IC50 (SW1990) was 0.637 µM and the IC50 (NY) was 0.657 µM. It also gave an IC50 (BOKU) of 0.104 µM, an IC50 (IM-9) of 0.0562 µM and an IC50 (M059J) of 0.101 µM. For the same compound, the IC50 (UO-31) was 0.366 µM, the IC50 (NCI-H2342) was 0.0625 µM and the IC50 (TE-441-T) was 1.6 µM. The IC50 (NCI-H2405) was 0.294 µM, the IC50 (NCI-H2171) was 1.5 µM and the IC50 (HCC 2998) was 0.16 µM. It also gave an IC50 (NCI-H1573) of 1.46 µM, an IC50 (BL-70) of 1.28 µM and an IC50 (LC-1F) of 0.862 µM. The IC50 (CAL-72) was over 16 µM, the IC50 (WM-115) was over 16 µM and the IC50 (DU-145) was under 0.0625 µM. It also gave an IC50 (CHL-1) of 0.225 µM, an IC50 (THP-1) of 0.596 µM and an IC50 (VMRC-RCZ) of 0.199 µM. For the same compound, the IC50 (EB-3) was 3.2 µM, the IC50 (HCC70) was 0.694 µM and the IC50 (NCI-H1623) was 1.01 µM. It also gave an IC50 (LC4-1) of 1.24 µM, an IC50 (CaR-1) of 0.469 µM and an IC50 (HSC-3) of 0.0755 µM. The IC50 (RPMI-2650) was 0.196 µM, the IC50 (CWR22R) was 0.144 µM and the IC50 (NCI-H2009) was 0.289 µM. It also gave an IC50 (BC-3) of 0.212 µM, an IC50 (NCI-H1993) of over 16 µM and an IC50 (HOP-92) of 1.94 µM. For the same compound, the IC50 (DoTc2-4510) was 0.18 µM and the IC50 (HT55) was 1.95 µM.
In the case of `N#C/C(=C1/Nc2ccccc2S1)c1ccnc(NCCc2cccnc2)n1`, the IC50 (SK-MES-1) is reported as 3.44 µM, the IC50 (NCI-H524) is reported as over 8 µM and the IC50 (NB12) is reported as over 8 µM. It also gave an IC50 (MKN-7) of over 8 µM, an IC50 (EVSA-T) of over 8 µM and an IC50 (SIG-M5) of over 8 µM. The IC50 (NCI-N87) was over 8 µM, the IC50 (HT-1376) was 7.32 µM and the IC50 (PANC-08-13) was 3.63 µM. The IC50 (SIMA) was over 8 µM, the IC50 (Ca-Ski) was over 8 µM and the IC50 (PF-382) was over 8 µM. It also gave an IC50 (ECC4) of over 8 µM, an IC50 (T98G) of over 8 µM and an IC50 (RVH-421) of over 8 µM. For the same compound, the IC50 (NCI-H345) was over 8 µM, the IC50 (MDA-MB-231) was over 8 µM and the IC50 (ME-180) was over 8 µM. For the same compound, the IC50 (YKG-1) was 3.77 µM, the IC50 (SW1710) was 1.59 µM and the IC50 (NCI-H28) was 3.29 µM. For the same compound, the IC50 (NCI-H661) was over 8 µM, the IC50 (RD) was over 8 µM and the IC50 (C-33-A) was 2.67 µM. The IC50 (CP50-MEL-B) was over 8 µM, the IC50 (23132-87) was 7.1 µM and the IC50 (PA-1) was 1.53 µM. For the same compound, the IC50 (UMC-11) was over 8 µM, the IC50 (OE19) was 2.92 µM and the IC50 (M14) was over 8 µM. It also gave an IC50 (SK-MEL-30) of over 8 µM, an IC50 (SW1990) of over 8 µM and an IC50 (NY) of 2.76 µM. The IC50 (BOKU) was over 8 µM, the IC50 (IM-9) was over 8 µM and the IC50 (M059J) was over 8 µM. It also gave an IC50 (UO-31) of 7.2 µM, an IC50 (NCI-H2342) of 4.52 µM and an IC50 (TE-441-T) of over 8 µM. For the same compound, the IC50 (NCI-H2405) was 5.97 µM, the IC50 (NCI-H2171) was over 8 µM and the IC50 (HCC 2998) was 3.17 µM. The IC50 (NCI-H1573) was over 8 µM, the IC50 (BL-70) was 4.85 µM and the IC50 (LC-1F) was over 8 µM. For the same compound, the IC50 (CAL-72) was over 8 µM, the IC50 (WM-115) was over 8 µM and the IC50 (DU-145) was over 8 µM. For the same compound, the IC50 (CHL-1) was 6.1 µM, the IC50 (THP-1) was 5.33 µM and the IC50 (VMRC-RCZ) was 7.77 µM. For the same compound, the IC50 (EB-3) was over 8 µM, the IC50 (HCC70) was over 8 µM and the IC50 (NCI-H1623) was over 8 µM. The IC50 (LC4-1) was 7.65 µM, the IC50 (CaR-1) was over 8 µM and the IC50 (HSC-3) was over 8 µM. It also gave an IC50 (RPMI-2650) of 2.58 µM, an IC50 (CWR22R) of over 8 µM and an IC50 (NCI-H2009) of over 8 µM. It also gave an IC50 (BC-3) of 7.46 µM, an IC50 (NCI-H1993) of over 8 µM and an IC50 (HOP-92) of over 8 µM. For the same compound, the IC50 (DoTc2-4510) was 2.08 µM and the IC50 (HT55) was over 8 µM.

— ChEMBL document CHEMBL1201861, “Genomics of Drug Sensitity in Cancer screening data, Wellcome Trust Sanger Institute”
